Tested on: Croton bug
Experiment: Physiological activity (Croton bug repellency) test, Test Example 5
Assay type: in vivo
Details: 3% solution in 1:1 hexane/acetone
Excerpt: A fraction 1 (16.192 g) of copaiba oil was given by silica gel column chromatography (replenishment silica gel: BW-127ZH, 350 g) using 3 liter of hexane as an elution solvent. A fraction 2 (2.868 g) was given by silica gel column chromatography (same as above) using a 4:4:1 mixture of hexane/chloroform/ethyl acetate as an elution solvent. A fraction 3 (1.401 g) was given by fractionating the remnant of the fraction 2 using a 1:1 solvent mixture of ethyl acetate/chloroform 21 as an elution solvent.
For comparison, the same test was conducted using copaiba oil and β-caryophyllene. The specimen was a 3% solution in the solvent. The solution was given using a 1:1 (volume ratio) mixture of hexane and acetone.

C=C1CC/C=C(\C)CC[C@@H]2[C@@H]1CC2(C)C [β-caryophyllene]
Repellency ratio (%) with time (4 hours): 96.2%
Repellency ratio (%) with time (24 hours): 70.6%
Repellency ratio (%) with time (48 hours): 52.6%
